Measured values taken from patent US20080182234A1, “Methods and Compositions for Modulating Adenosine Triphosphate (ATP) in Cells and Preventing Cell Injury or Death via Post-translational Modifications to ATP Synthase” (priority 2001, published 2008).
“Also recorded” adds a separate entry of the source.

Assays:
[1] = system: isolated myocytes obtained from rabbit hearts; details: 100 μM adenosine for 60 minutes; cited from earlier work
[2] = system: ATP synthase β chain precursor; assay: Two-dimensional gel electrophoresis (silver stain, western blot) of cytoplasmic extract of adenosine-treated isolated myocytes; type: cell-based, rabbit
Description: Ventricular myocytes from New Zealand White rabbits (weighing 1 to 2 kg) were isolated by collagenase dissociation, as described previously by Liu et al. (Circ. Res. 1996 78:443-454). Hearts were excised, then perfused with collagenase (1.0 mg/mL, Worthington type II) for 14 minutes at a maintained perfusion pressure of 75 mm Hg on a Langendorff apparatus, yielding >50% Ca^2+-tolerant ventricular myocytes. Cell isolation was followed directly by pharmacological preconditioning, which was carried out by treatment with 100 μmol/L adenosine (Sigma) for 60 minutes in a 37° C. water bath, as described previously by Liu et al. supra. Untreated cells were prepared concurrently as drug-free controls. Equivalent 25 μL aliquots of cells (containing ˜30 mg/mL of protein as determined by Lowry assay (Lowry, O. H. J. Biol. Chem. 1951 193:265-275) were frozen and stored at −80° C. until analysis. All steps in the “1N Sequence” protein extraction protocol to produce cytoplasmic and myofilament enriched extracts were carried out at 4° C., and all centrifugations were conducted at 16000×g for 2 minutes at 4° C. Myocyte proteins were first extracted by two rounds of homogenization in 100 μL of HEPES extraction buffer, consisting of (in mmol/L) HEPES 25 (pH 7.4), NaF 50, Na3VO4 0.25, phenylmethylsulfonyl fluoride 0.25, EDTA 0.5, and (in μmol/L) leupeptin 1.25, pepstatin A 1.25. […]

SMILES: Nc1ncnc2c1ncn2[C@@H]1O[C@H](CO)[C@@H](O)[C@H]1O [adenosine]
- protection against cell death [1]: sufficient to protect against cell death
- additional, more acidic spots at the molecular weight of intact ATP synthase β chain precursor on 2-D gel (silver stain or western blot) ([2]; isolated rabbit cardiomyocytes, 100 μM adenosine for 60 minutes, cytoplasmic extract, n=4, control had only a single protein spot): Two additional spots
- post-translational modifications of ATP synthase β-chain precursor ([2]; isolated rabbit myocytes treated with adenosine for 60 minutes (n=4) versus untreated myocytes): An increase in the post-translational modifications; also recorded: Post-translational modifications to the ATP synthase β-chain precursor were detected
